Measurements published in patent publication US20240058464A1 (Fortis Therapeutics, Inc., priority 2021, published 2024).
Where a SMILES comes first, the peptide text is derived from it. [ ]: non-standard residue; d: D form. The star is where a group is joined. dPhe(4-NHCONH2) = NC(=O)Nc1ccc(C[C@@H](N)C(=O)O)cc1; Dihydroorotyl(S) = O=C1C[C@@H](C(=O)*)NC(=O)N1; dPhe(4-Cl) = N[C@H](Cc1ccc(Cl)cc1)C(=O)O; Phe(4-NH2) = Nc1ccc(C[C@H](N)C(=O)O)cc1; d2Nal = N[C@H](Cc1ccc2ccccc2c1)C(=O)O; Lys(iPr) = CC(C)NCCCC[C@H](N)C(=O)O; d3Pal = N[C@H](Cc1cccnc1)C(=O)O

Tested on: CD46 expression
Experiment: CD46 expression by RNA-sequencing in unpaired pre-treatment and post-treatment tumor biopsies
Format: in vivo, human
[1] = Breast Cancer, post minus pre, unpaired biopsies
[2] = Breast Cancer, post vs pre, unpaired biopsies
[3] = Breast Cancer, post-treatment biopsies, log2-transformed RNA-seq counts
[4] = Non-Small Cell Lung Cancer, Post minus Pre, unpaired biopsies, log2-transformed counts
[5] = Non-Small Cell Lung Cancer, post- vs pre-treatment unpaired biopsies
[6] = Non-Small Cell Lung Cancer, post-treatment biopsies, unpaired, RNA-seq log2-transformed normalized counts
[7] = Clear Cell Renal Cell Carcinoma, post minus pre, unpaired biopsies
[8] = Clear Cell Renal Cell Carcinoma, post vs pre, unpaired biopsies
[9] = Clear Cell Renal Cell Carcinoma, post-treatment biopsies, log2-transformed RNA-seq counts
[10] = Melanoma, Post minus Pre, unpaired biopsies, log2-transformed counts
[11] = Melanoma, post- vs pre-treatment unpaired biopsies
[12] = Melanoma, post-treatment biopsies, unpaired, RNA-seq log2-transformed normalized counts
[13] = Endocrine Tumor, Post minus Pre, unpaired biopsies, log2-transformed counts
[14] = Endocrine Tumor, post- vs pre-treatment unpaired biopsies
[15] = Endocrine Tumor, post-treatment biopsies, unpaired, RNA-seq log2-transformed normalized counts
[16] = Sarcoma, Post minus Pre, unpaired biopsies, log2-transformed counts
[17] = Sarcoma, post- vs pre-treatment unpaired biopsies
[18] = Sarcoma, post-treatment biopsies, unpaired, RNA-seq log2-transformed normalized counts
[19] = Breast Cancer, Post minus Pre, unpaired biopsies, log2-transformed counts
[20] = Breast Cancer, post- vs pre-treatment unpaired biopsies
[21] = Breast Cancer, post-treatment biopsies, unpaired, RNA-seq log2-transformed normalized counts
[22] = Colorectal Cancer, Post minus Pre, unpaired biopsies, log2-transformed counts
[23] = Colorectal Cancer, post- vs pre-treatment unpaired biopsies
[24] = Colorectal Cancer, post-treatment biopsies, unpaired, RNA-seq log2-transformed normalized counts
[25] = Bladder Cancer, post minus pre, unpaired biopsies
[26] = Bladder Cancer, post vs pre, unpaired biopsies
[27] = Bladder Cancer, post-treatment biopsies, log2-transformed RNA-seq counts

CCN1CCN(Cc2ccc(Nc3ncc(F)c(-c4cc(F)c5nc(C)n(C(C)C)c5c4)n3)nc2)CC1 [abemaciclib]
CD46 expression diff [1]: −0.15
CD46 expression Percentage change [2]: −2.4%
CD46 expression Post [3]: 6.33

CN(C)C/C=C/C(=O)Nc1cc2c(Nc3ccc(F)c(Cl)c3)ncnc2cc1O[C@H]1CCOC1 [afatinib]
CD46 expression diff [4]: 0.11
CD46 expression Percentage change [5]: 1.7%
CD46 expression Post [6]: 6.43

CCc1cc2c(cc1N1CCC(N3CCOCC3)CC1)C(C)(C)c1[nH]c3cc(C#N)ccc3c1C2=O [alectinib]
CD46 expression diff [4]: −0.03
CD46 expression Percentage change [5]: −0.5%
CD46 expression Post [6]: 6.18

CNC(=O)c1ccc(N2C(=S)N(c3cnc(C#N)c(C(F)(F)F)c3)C(=O)C23CCC3)cc1F [apalutamide]
CD46 expression diff (Prostate Cancer, Post minus Pre, unpaired biopsies, log2-transformed counts): −0.03
CD46 expression Percentage change (Prostate Cancer, post- vs pre-treatment unpaired biopsies): −0.5%
CD46 expression Post (Prostate Cancer, post-treatment biopsies, unpaired, RNA-seq log2-transformed normalized counts): 6.14

CNC(=O)c1ccccc1Sc1ccc2c(/C=C/c3ccccn3)n[nH]c2c1 [axitinib]
CD46 expression diff [7]: −0.29
CD46 expression Percentage change [8]: −5.1%
CD46 expression Post [9]: 5.43

COc1cc2nccc(Oc3ccc(NC(=O)C4(C(=O)Nc5ccc(F)cc5)CC4)cc3)c2cc1OC [cabozantinib]
CD46 expression diff (Clear Cell Renal Cell Carcinoma, Post minus Pre, unpaired biopsies, log2-transformed counts): −0.12
CD46 expression Percentage change (Clear Cell Renal Cell Carcinoma, post- vs pre-treatment unpaired biopsies): −2.1%
CD46 expression Post (Clear Cell Renal Cell Carcinoma, post-treatment biopsies, unpaired, RNA-seq log2-transformed normalized counts): 5.44

C[C@@H](Oc1cc(-c2cnn(C3CCNCC3)c2)cnc1N)c1c(Cl)ccc(F)c1Cl [crizotinib]
CD46 expression diff [4]: 0.16
CD46 expression Percentage change [5]: 2.7%

CC(C)(C)c1nc(-c2cccc(NS(=O)(=O)c3c(F)cccc3F)c2F)c(-c2ccnc(N)n2)s1 [dabrafenib]
CD46 expression diff [10]: 0.11
CD46 expression Percentage change [11]: 2.0%
CD46 expression Post [12]: 5.42

CC(=O)N[C@H](Cc1ccc2ccccc2c1)C(=O)N[C@H](Cc1ccc(Cl)cc1)C(=O)N[C@H](Cc1cccnc1)C(=O)N[C@@H](CO)C(=O)N[C@@H](Cc1ccc(NC(=O)[C@@H]2CC(=O)NC(=O)N2)cc1)C(=O)N[C@H](Cc1ccc(NC(N)=O)cc1)C(=O)N[C@@H](CC(C)C)C(=O)N[C@@H](CCCCNC(C)C)C(=O)N1CCC[C@H]1C(=O)N[C@H](C)C(N)=O [degarelix] (Ac-[d2Nal][dPhe(4-Cl)][d3Pal]S[Phe(4-NH2)](Dihydroorotyl(S))[dPhe(4-NHCONH2)]L[Lys(iPr)]P[dA]-NH2)
CD46 expression diff (Prostate Cancer, post minus pre, unpaired biopsies): −0.29
CD46 expression Percentage change (Prostate Cancer, post vs pre, unpaired biopsies): −4.6%
CD46 expression Post (Prostate Cancer, post-treatment biopsies, log2-transformed RNA-seq counts): 5.94
CD46 expression Pre (Prostate Cancer, pre-treatment biopsies, log2-transformed RNA-seq counts): 6.23

C#Cc1cccc(Nc2ncnc3cc(OCCOC)c(OCCOC)cc23)c1 [erlotinib]
CD46 expression diff [4]: −0.04
CD46 expression Percentage change [5]: −0.6%
CD46 expression Post [6]: 6.23

COc1cc([C@@H]2c3cc4c(cc3[C@@H](O[C@@H]3O[C@@H]5CO[C@@H](C)O[C@H]5[C@H](O)[C@H]3O)[C@H]3COC(=O)[C@H]23)OCO4)cc(OC)c1O [etoposide]
CD46 expression diff [13]: 0.11
CD46 expression Percentage change [14]: 2.0%
CD46 expression Post [15]: 5.79
CD46 expression diff [4]: 0.10
CD46 expression Percentage change [5]: 1.7%
CD46 expression Post [6]: 5.98
CD46 expression diff [16]: 0.30
CD46 expression Percentage change [17]: 6.2%
CD46 expression Post [18]: 5.13

CO[C@H]1C[C@@H]2CC[C@@H](C)[C@@](O)(O2)C(=O)C(=O)N2CCCC[C@H]2C(=O)O[C@H]([C@H](C)C[C@@H]2CC[C@@H](OCCO)[C@H](OC)C2)CC(=O)[C@H](C)/C=C(\C)[C@@H](O)[C@@H](OC)C(=O)[C@H](C)C[C@H](C)/C=C/C=C/C=C/1C [everolimus]
CD46 expression diff [19]: 0.09
CD46 expression Percentage change [20]: 1.4%
CD46 expression Post [21]: 6.46

CC(C)C[C@H](NC(=O)[C@@H](COC(C)(C)C)NC(=O)[C@H](Cc1ccc(O)cc1)NC(=O)[C@H](CO)NC(=O)[C@H](Cc1c[nH]c2ccccc12)NC(=O)[C@H](Cc1cnc[nH]1)NC(=O)[C@@H]1CCC(=O)N1)C(=O)N[C@@H](CCCNC(=N)N)C(=O)N1CCC[C@H]1C(=O)NNC(N)=O [goserelin]
CD46 expression diff [19]: 0.00
CD46 expression Percentage change [20]: −0.1%
CD46 expression Post [21]: 6.38

CS(=O)(=O)CCNCc1ccc(-c2ccc3ncnc(Nc4ccc(OCc5cccc(F)c5)c(Cl)c4)c3c2)o1 [lapatinib]
CD46 expression diff [19]: −0.08
CD46 expression Percentage change [20]: −1.2%
CD46 expression Post [21]: 6.22

COc1cc2nccc(Oc3ccc(NC(=O)NC4CC4)c(Cl)c3)c2cc1C(N)=O [lenvatinib]
CD46 expression diff (Thyroid Cancer, Post minus Pre, unpaired biopsies, log2-transformed counts): −0.02
CD46 expression Percentage change (Thyroid Cancer, post- vs pre-treatment unpaired biopsies): −0.4%
CD46 expression Post (Thyroid Cancer, post-treatment biopsies, unpaired, RNA-seq log2-transformed normalized counts): 5.82

N[C@@H](Cc1cc(I)c(Oc2cc(I)c(O)c(I)c2)c(I)c1)C(=O)O [levothyroxine]
CD46 expression diff (Non-Small Cell Lung Cancer, post minus pre, unpaired biopsies): −0.17
CD46 expression Percentage change (Non-Small Cell Lung Cancer, post vs pre, unpaired biopsies): −2.9%
CD46 expression Post (Non-Small Cell Lung Cancer, post-treatment biopsies, log2-transformed RNA-seq counts): 5.87

O=S(=O)(O)CCS [mesna]
CD46 expression diff (Sarcoma, post minus pre, unpaired biopsies): −0.16
CD46 expression Percentage change (Sarcoma, post vs pre, unpaired biopsies): −3.2%
CD46 expression Post (Sarcoma, post-treatment biopsies, log2-transformed RNA-seq counts): 4.88

CN(C)C(=N)N=C(N)N [metformin]
CD46 expression diff [22]: 0.27
CD46 expression Percentage change [23]: 4.2%
CD46 expression Post [24]: 6.70
CD46 expression diff [4]: 0.03
CD46 expression Percentage change [5]: 0.5%
CD46 expression Post [6]: 6.07

CN(Cc1cnc2nc(N)nc(N)c2n1)c1ccc(C(=O)N[C@@H](CCC(=O)O)C(=O)O)cc1 [methotrexate]
CD46 expression diff [25]: −0.25
CD46 expression Percentage change [26]: −4.0%
CD46 expression Post [27]: 5.88
CD46 expression diff [19]: 0.07
CD46 expression Percentage change [20]: 1.2%
CD46 expression Post [21]: 6.32

C[C@H]1C[C@@H]2[C@H]([C@@H](O)C[C@@]3(C)[C@H]2CC[C@]3(O)C(=O)CO)[C@@]2(C)C=CC(=O)C=C12 [methylprednisolone]
CD46 expression diff [19]: 0.31
CD46 expression Percentage change [20]: 5.0%
CD46 expression Post [21]: 6.49
CD46 expression diff [4]: −0.04
CD46 expression Percentage change [5]: −0.6%
CD46 expression Post [6]: 6.16

CO[C@@]12[C@H](COC(N)=O)C3=C(C(=O)C(C)=C(N)C3=O)N1C[C@@H]1N[C@@H]12 [mitomycin]
CD46 expression diff [22]: 0.23
CD46 expression Percentage change [23]: 3.9%
CD46 expression Post [24]: 5.93

NC(=O)c1cccc2cn(-c3ccc([C@@H]4CCCNC4)cc3)nc12 [niraparib]
CD46 expression Percentage change (in vivo): 0.1%
CD46 expression Post (in vivo): 5.72
CD46 expression diff (in vivo): 0.00

C[C@@H](O)[C@@H]1NC(=O)[C@H](CCCCN)NC(=O)[C@@H](Cc2c[nH]c3ccccc23)NC(=O)[C@H](Cc2ccccc2)NC(=O)[C@@H](NC(=O)[C@H](N)Cc2ccccc2)CSSC[C@@H](C(=O)N[C@H](CO)[C@@H](C)O)NC1=O [octreotide]
CD46 expression diff [13]: −0.05
CD46 expression Percentage change [14]: −0.9%
CD46 expression Post [15]: 5.59

Cc1ccc(Nc2nccc(N(C)c3ccc4c(C)n(C)nc4c3)n2)cc1S(N)(=O)=O [pazopanib]
CD46 expression diff [7]: −0.22
CD46 expression Percentage change [8]: −4.0%
CD46 expression Post [9]: 5.37
CD46 expression diff [16]: −0.10
CD46 expression Percentage change [17]: −1.9%
CD46 expression Post [18]: 5.03

CN(C)C(=O)c1cc2cnc(Nc3ccc(N4CCNCC4)cn3)nc2n1C1CCCC1 [ribociclib]
CD46 expression diff [1]: −0.17
CD46 expression Percentage change [2]: −2.6%
CD46 expression Post [3]: 6.30

COc1cc2c(cc1O)CCN[C@]21CS[C@@H]2c3c(OC(C)=O)c(C)c4c(c3[C@H](COC1=O)N1[C@@H]2[C@H]2c3c(cc(C)c(OC)c3O)C[C@@H]([C@@H]1O)N2C)OCO4 [trabectedin]
CD46 expression diff [16]: 0.00
CD46 expression Percentage change [17]: −0.1%
CD46 expression Post [18]: 5.23

CC(=O)Nc1cccc(-n2c(=O)n(C3CC3)c(=O)c3c(Nc4ccc(I)cc4F)n(C)c(=O)c(C)c32)c1 [trametinib]
CD46 expression diff [10]: 0.08
CD46 expression Percentage change [11]: 1.4%
CD46 expression Post [12]: 5.39

CC[C@]1(O)C[C@@H]2CN(CCc3c([nH]c4ccccc34)[C@@](C(=O)OC)(c3cc4c(cc3OC)N(C)[C@H]3[C@@](O)(C(=O)OC)[C@H](OC(C)=O)[C@]5(CC)C=CCN6CC[C@]43[C@@H]65)C2)C1 [vinblastine]
CD46 expression diff [25]: −0.24
CD46 expression Percentage change [26]: −3.9%
CD46 expression Post [27]: 5.89

CC[C@]1(O)C[C@H]2CN(CCc3c([nH]c4ccccc34)[C@@](C(=O)OC)(c3cc4c(cc3OC)N(C=O)[C@H]3[C@@](O)(C(=O)OC)[C@H](OC(C)=O)[C@]5(CC)C=CCN6CC[C@]43[C@@H]65)C2)C1 [vincristine]
CD46 expression diff [16]: −0.03
CD46 expression Percentage change [17]: −0.5%
CD46 expression Post [18]: 5.09
